In ChEMBL document CHEMBL4004781, “Synthesis, biological evaluation, docking study and ulcerogenicity profiling of some novel quinoline-2-carboxamides as dual COXs/LOX inhibitors endowed with anti-inflammatory activity” (Eur J Med Chem, 2017):

Key:
[1] = molecular target: T1, Prostaglandin G/H synthase 1 (Ovis aries, UniProt P05979); assay: Inhibition of ovine COX1 using arachidonic acid as substrate assessed as decrease in PGF2 production preincubated for 15 mins followed by substrate addition measured after 2 mins by enzyme immunoassay
T1 sequence (P05979 whole entry): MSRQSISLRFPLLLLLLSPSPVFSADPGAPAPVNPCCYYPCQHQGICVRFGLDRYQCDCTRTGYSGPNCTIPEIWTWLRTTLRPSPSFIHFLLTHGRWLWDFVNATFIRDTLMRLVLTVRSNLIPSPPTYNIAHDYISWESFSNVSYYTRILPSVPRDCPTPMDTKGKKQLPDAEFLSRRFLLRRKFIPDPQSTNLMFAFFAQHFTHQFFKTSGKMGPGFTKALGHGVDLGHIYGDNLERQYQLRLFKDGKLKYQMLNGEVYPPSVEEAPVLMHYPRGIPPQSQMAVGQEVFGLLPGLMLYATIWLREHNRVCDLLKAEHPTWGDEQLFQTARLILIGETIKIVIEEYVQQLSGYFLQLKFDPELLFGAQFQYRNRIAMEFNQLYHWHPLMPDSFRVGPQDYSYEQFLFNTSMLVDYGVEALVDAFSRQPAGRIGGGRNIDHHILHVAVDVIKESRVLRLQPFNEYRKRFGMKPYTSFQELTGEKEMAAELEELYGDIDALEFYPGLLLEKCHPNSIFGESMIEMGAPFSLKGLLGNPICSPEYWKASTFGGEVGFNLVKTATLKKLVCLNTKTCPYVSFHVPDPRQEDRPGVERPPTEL

[2] = molecular target: T2, Prostaglandin G/H synthase 2 (Homo sapiens, UniProt P35354); assay: Inhibition of recombinant human COX2 using arachidonic acid as substrate assessed as decrease in PGF2 production preincubated for 15 mins followed by substrate addition measured after 2 mins by enzyme immunoassay
T2 sequence (P35354 whole entry): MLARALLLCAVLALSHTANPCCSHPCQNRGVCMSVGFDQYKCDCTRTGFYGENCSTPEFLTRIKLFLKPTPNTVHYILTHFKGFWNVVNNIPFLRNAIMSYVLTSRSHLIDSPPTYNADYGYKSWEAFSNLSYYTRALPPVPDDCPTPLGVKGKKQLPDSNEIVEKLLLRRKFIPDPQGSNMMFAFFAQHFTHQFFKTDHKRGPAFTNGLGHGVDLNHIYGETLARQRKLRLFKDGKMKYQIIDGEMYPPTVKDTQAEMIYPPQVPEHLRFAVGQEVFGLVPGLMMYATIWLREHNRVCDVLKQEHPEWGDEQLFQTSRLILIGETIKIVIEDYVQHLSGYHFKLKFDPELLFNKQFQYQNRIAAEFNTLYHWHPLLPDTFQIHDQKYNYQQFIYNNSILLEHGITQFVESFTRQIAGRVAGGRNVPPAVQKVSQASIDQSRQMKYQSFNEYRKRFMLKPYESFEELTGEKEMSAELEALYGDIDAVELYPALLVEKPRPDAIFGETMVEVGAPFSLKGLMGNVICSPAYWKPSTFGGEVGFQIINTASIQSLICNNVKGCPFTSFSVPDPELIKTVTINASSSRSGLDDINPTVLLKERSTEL

[3] = Selectivity ratio of IC50 for ovine COX1 to IC50 for recombinant human COX2
Rattus norvegicus [4] = assay: Antiinflammatory activity in albino rat assessed as inhibition of carrageenan-induced paw edema at 28 umol/kg, ip administered 1 hr post carrageenan challenge measured at 1 hr post compound dosing relative to control; format: functional
Rattus norvegicus [5] = assay: Antiinflammatory activity in albino rat assessed as inhibition of carrageenan-induced paw edema at 28 umol/kg, ip administered 1 hr post carrageenan challenge measured at 3 hrs post compound dosing relative to control; format: functional
Rattus norvegicus [6] = assay: Antiinflammatory activity in albino rat assessed as inhibition of carrageenan-induced paw edema at 28 umol/kg, ip administered 1 hr post carrageenan challenge measured at 5 hrs post compound dosing relative to control; format: functional
[7] = Inhibition of soybean 15-LOX assessed as decrease in leukotriene formation by enzyme immunoassay; parameters: species or system Glycine max
[8] = Inhibition of soybean 15-LOX; parameters: species or system Glycine max

Row | SMILES | IC50 [1] [µM] | IC50 [2] [µM] | Ratio IC50 [3] | inhibition in vivo at 28 µmol/kg (Rattus norvegicus [4]) [%] | inhibition in vivo at 28 µmol/kg (Rattus norvegicus [5]) [%] | inhibition in vivo at 28 µmol/kg (Rattus norvegicus [6]) [%] | IC50 [7] [µM] | IC50 [8] [µM]
1 | Cc1c(C(=O)N(C)c2ccccc2)nc2ccc(Cl)cc2c1O | 8.3 | 1.74 | 4.77 | 38.9 | 45.6 | 47 | – | –
2 | Cc1c(C(=O)NCCc2ccc(N3CCCC3)cc2)nc2ccc(Cl)cc2c1O | 7.5 | 1.69 | 4.43 | 41 | 48 | 49.9 | 6.74 | –
3 | CC(C)(C)Nc1c(-c2cc3ccccc3nc2Cl)nc2sccn12 | – | – | – | – | – | – | – | 11.5
4 | Cc1c(C(=O)NC2CCCCC2)nc2ccc(Cl)cc2c1O | 7.8 | 1.41 | 5.53 | 43.5 | 50.1 | 52 | 6.54 | –
5 | Cc1ccc(Cl)c(Nc2ccccc2C(=O)O)c1Cl [MECLOFENAMATE SODIUM] | – | – | – | – | – | – | 5.64 | –
6 | CCOC(=O)C(Cc1ccccc1)NC(=O)c1nc2ccc(Cl)cc2c(O)c1C (stereo not given) | 9.6 | 1.91 | 5.02 | 40.5 | 47.3 | 49 | 7.14 | –
7 | Cc1ccc(-c2cc(C(F)(F)F)nn2-c2ccc(S(N)(=O)=O)cc2)cc1 [CELECOXIB] | – | – | – | 57.1 | 68.4 | 71.2 | – | –
8 | Cc1c(C(=O)N2CCNCC2)nc2ccc(Cl)cc2c1O | 10.7 | 2.81 | 3.8 | 31.1 | 37.5 | 38 | 8.43 | –
9 | Cc1c(C(=O)NC2CCCN(Cc3ccccc3)C2)nc2ccc(Cl)cc2c1O (stereo not given) | 13.1 | 3.54 | 3.7 | 31.4 | 35.9 | 37.8 | – | –
